In patent publication US20240016874A1, “COMPOSITIONS AND METHODS FOR PREVENTING AND TREATING CORONAVIRUSES” (priority 2020, published 2024):

System: SARS-CoV-2-PP (614G, Delta, UK, Brazil variants) infecting ACE2 expression cells
Format: cell-based

| SMILES | inhibition of SARS-CoV-2-PP infection | difference of effect between variants | effect on variants when combined with Oleic acid or Linoleic acid |
| --- | --- | --- | --- |
| CC1=CC(=O)C(C(C)C)=CC1=O [thymoquinone] | good inhibitor |  |  |
| CCCCCCCCCCCCCCCC(=O)O [palmitic acid] | good inhibitor | a difference between the Brazil variant and the other variants | strongest inhibition on the Delta variant |
